Experimental data as given in CN101125142A, “青蒿素在制备抗肿瘤多药耐药药物中的应用” (DONGZHIMEN HOSPITAL AFFILIATED TO BEIJING UNIVERSITY OF …, priority 2007, dated 2008).
Several values for one entry are separate records, joined by “and”; a condition that tells them apart may be missing. Equal entries are not always repeated. Entries after “also recorded” stand apart in the source; their conditions may differ. Where two headings read alike, the source gives them in different places.

Columns and labels:
KBV200 cells (KBV200细胞) [1] = conditions: KBV200 cell line; cited from earlier work
KBV200 cells (KBV200细胞) [2] = experiment: MTT cytotoxicity test: growth inhibition of KBV200 cells by single agents; format: cell-based, human; conditions: for IC50: KBv200; for inhibitory effect on tumour cells compared with another agent: artesunate versus artemisinin, dihydroartemisinin versus artesunate
KBV200 cells (KBV200细胞) [3] = experiment: Reversal of resistance: MTT growth inhibition of KBV200 cells by agent combined with VCR; format: cell-based, human; conditions: for inhibition rate of KBV200 cells on combination with VCR: VCR concentration constant, three agent concentrations; for reversal of vincristine resistance / sensitisation of KBV200 to VCR: agent combined with VCR
[4] = test system: tumour multidrug resistance (肿瘤多药耐药); conditions: background; cited from earlier work
[5] = Homo sapiens, mass concentration in brackets beside the μmol/l value
[6] = Homo sapiens, single agent, 72 h (discussion)

O=c1[nH]cc(F)c(=O)[nH]1 [5-氟脲嘧啶]
resistance (KBV200 cells (KBV200细胞) [1]): 耐药性较低

CC[C@]1(O)C[C@H]2CN(CCc3c([nH]c4ccccc34)[C@@](C(=O)OC)(c3cc4c(cc3OC)N(C=O)[C@H]3[C@@](O)(C(=O)OC)[C@H](OC(C)=O)[C@]5(CC)C=CCN6CC[C@]43[C@@H]65)C2)C1 [VCR, 长春新碱]
inhibition rate (KBV200 cells (KBV200细胞) [2]): < 50%
inhibition at 0.125 µg/mL (KBV200 cells (KBV200细胞) [2]; Homo sapiens, KBv200, 72 h, VCR 0.125 μg/ml, 72 h, read-out: inhibition rate (IR)): 6.51 ± 2.59%
inhibition at 0.25 µg/mL (KBV200 cells (KBV200细胞) [2]; Homo sapiens, KBv200, 72 h, VCR 0.250 μg/ml, 72 h, read-out: inhibition rate (IR)): 9.06 ± 3.13%
inhibition at 0.5 µg/mL (KBV200 cells (KBV200细胞) [2]; Homo sapiens, KBv200, 72 h, VCR 0.500 μg/ml, 72 h, read-out: inhibition rate (IR)): 13.9 ± 3.54%
inhibition at 1 µg/mL (KBV200 cells (KBV200细胞) [2]; Homo sapiens, KBv200, 72 h, VCR 1.000 μg/ml, 72 h, read-out: inhibition rate (IR)): 25.6 ± 1.71%
inhibition at 2 µg/mL (KBV200 cells (KBV200细胞) [2]; Homo sapiens, KBv200, 72 h, VCR 2.000 μg/ml, 72 h, read-out: inhibition rate (IR)): 66.3 ± 0.01%
IC50 (KBV200 cells (KBV200细胞) [2]; Homo sapiens, VCR alone, 72 h): 1.58 ± 1.22 µg/mL
inhibition rate (IR) (KBV200 cells (KBV200细胞) [2]; VCR 0.500 μg/ml, 72 h): 13.96±3.54%
inhibition rate (IR) (KBV200 cells (KBV200细胞) [2]; VCR 1.000 μg/ml, 72 h): 25.65±1.71%
inhibition rate (IR) (KBV200 cells (KBV200细胞) [2]; VCR 2.000 μg/ml, 72 h): 66.31±0.01%
inhibitory effect on KBV200 cells (KBV200 cells (KBV200细胞) [2]; VCR above 1.58 μg/ml): 具有较为明显的抑制效应
inhibitory effect on KBV200 cells (KBV200 cells (KBV200细胞) [2]; VCR below 1 μg/ml): 抑制效应并不明显
fold resistance (KBV200 cells (KBV200细胞) [1]): ~175 fold

CC1CCC2C(C)C(O)OC3OC4(C)CCC1C32OO4 (stereo not drawn) [二氢青蒿素]
IC50 (KBV200 cells (KBV200细胞) [2]; [5]): 3.18 µg/mL
IC50 (KBV200 cells (KBV200细胞) [2]; [6]): 11.2 µM
inhibitory effect on tumour cells compared with another agent (KBV200 cells (KBV200细胞) [2]): 较青蒿琥酯次之
inhibition rate (IR) (KBV200 cells (KBV200细胞) [2]; dihydroartemisinin 0.156 μmol/l, 72 h): 0.680±0.84%
inhibition rate (IR) (KBV200 cells (KBV200细胞) [2]; dihydroartemisinin 0.313 μmol/l, 72 h): 0.940±3.87%
inhibition rate (IR) (KBV200 cells (KBV200细胞) [2]; dihydroartemisinin 1.250 μmol/l, 72 h): < 20% and 10.00±3.31%
inhibition rate (IR) (KBV200 cells (KBV200细胞) [2]; dihydroartemisinin 2.500 μmol/l, 72 h): < 20% and 18.50±4.88%
inhibition rate (IR) (KBV200 cells (KBV200细胞) [2]; dihydroartemisinin 5.000 μmol/l, 72 h): 32.30±10.1%
inhibition rate (IR) (KBV200 cells (KBV200细胞) [2]; dihydroartemisinin 10.00 μmol/l, 72 h): 48.69±6.53%
inhibition rate (IR) (KBV200 cells (KBV200细胞) [2]; dihydroartemisinin 20.00 μmol/l, 72 h): 71.98±7.16%
inhibition rate (IR) (KBV200 cells (KBV200细胞) [2]; dihydroartemisinin 40.00 μmol/l, 72 h): 89.99±4.39%
inhibition rate (KBV200 cells (KBV200细胞) [2]; dihydroartemisinin above 11.16 umol/l): > 50%
inhibitory effect on KBV200 cells (KBV200 cells (KBV200细胞) [2]; dihydroartemisinin below 0.313 umol/l): 几乎无抑制效应
inhibition rate (KBV200 cells (KBV200细胞) [2]; dihydroartemisinin below 2.5 umol/l): < 20%
inhibitory effect on KBV200 cells (KBV200 cells (KBV200细胞) [2]; dihydroartemisinin below 10 umol/l): 抑制效应并不明显
inhibitory effect on KBV200 cells (KBV200 cells (KBV200细胞) [2]; overall statement): 大浓度具有一定的抑制KBV200细胞增殖效应; also recorded: 均有一定抑制效应
inhibition rate of KBV200 cells on combination with VCR (KBV200 cells (KBV200细胞) [3]): 略有提高
reversal of vincristine resistance / sensitisation of KBV200 to VCR (KBV200 cells (KBV200细胞) [3]): 有一定的增敏作用
reversal fold (RI) (KBV200 cells (KBV200细胞) [3]; dihydroartemisinin 0.625 umol/l with VCR): 1.35
reversal fold (RI) (KBV200 cells (KBV200细胞) [3]; dihydroartemisinin 1.25 umol/l with VCR): 1.515
reversal fold (RI) (KBV200 cells (KBV200细胞) [3]; dihydroartemisinin 2.5 umol/l with VCR): 1.74

COc1cc2c(cc1OC)[C@@H]1Cc3ccc(OC)c(OC)c3CN1CC2 [左旋四氢马汀]
reversal fold [4]: 8.2-13.0

COc1cc2c(c(OC)c1OC)-c1ccc(OC)c(=O)cc1[C@@H](NC(C)=O)CC2 [秋水仙素]
fold resistance (KBV200 cells (KBV200细胞) [1]): ~15 fold

COc1ccc2cc1Oc1ccc(cc1)C[C@H]1c3cc(c(OC)cc3CCN1C)Oc1c(OC)c(OC)cc3c1[C@H](C2)N(C)CC3 [粉防已碱]
reversal fold [4]: 8.2-13.0

CC(=O)O[C@H]1C(=O)[C@@]2(C)[C@H]([C@H](OC(=O)c3ccccc3)[C@]3(O)C[C@H](OC(=O)[C@H](O)[C@@H](NC(=O)c4ccccc4)c4ccccc4)C(C)=C1C3(C)C)[C@]1(OC(C)=O)CO[C@@H]1C[C@@H]2O [紫杉醇]
fold resistance (KBV200 cells (KBV200细胞) [1]): ~156 fold

COc1cc2c(cc1OC)[C@@H](Cc1ccc(Oc3cc(C[C@@H]4c5cc(OC)c(OC)cc5CCN4C)ccc3O)cc1)N(C)CC2 [蝙蝠葛碱]
reversal fold [4]: 8.2-13.0

COc1cccc2c1C(=O)c1c(O)c3c(c(O)c1C2=O)C[C@@](O)(C(=O)CO)C[C@@H]3O[C@H]1C[C@H](N)[C@H](O)[C@H](C)O1 [阿霉素]
fold resistance (KBV200 cells (KBV200细胞) [1]): ~15 fold

C[C@H]1[C@H](OC(=O)CCC(=O)O)O[C@@H]2O[C@@]3(C)CC[C@H]4[C@H](C)CC[C@@H]1[C@@]24OO3 [青蒿琥酯]
selective killing of KBV200 cells (KBV200 cells (KBV200细胞) [2]): 有选择性杀伤作用
IC50 (KBV200 cells (KBV200细胞) [2]; [5]): 0.563 µg/mL
IC50 (KBV200 cells (KBV200细胞) [2]; [6]): 1.47 µM
inhibition rate (IR) (KBV200 cells (KBV200细胞) [2]; artesunate 0.0156 μmol/l (so in the source), 72 h): 9.520±4.910%
inhibition rate (IR) (KBV200 cells (KBV200细胞) [2]; artesunate 0.0390 μmol/l, 72 h): 1.640±3.520%
inhibition rate (KBV200 cells (KBV200细胞) [2]; artesunate 0.156 umol/l): < 20%
inhibition rate (IR) (KBV200 cells (KBV200细胞) [2]; artesunate 0.3130 μmol/l, 72 h): < 20% and 18.41±4.420%
inhibition rate (IR) (KBV200 cells (KBV200细胞) [2]; artesunate 0.6250 μmol/l, 72 h): 35.25±10.52%
inhibition rate (IR) (KBV200 cells (KBV200细胞) [2]; artesunate 1.2500 μmol/l, 72 h): 47.56±1.250%
inhibition rate (IR) (KBV200 cells (KBV200细胞) [2]; artesunate 2.5000 μmol/l, 72 h): 57.67±1.110%
inhibition rate (IR) (KBV200 cells (KBV200细胞) [2]; artesunate 5.0000 μmol/l, 72 h): 69.85±6.900%
inhibition rate (IR) (KBV200 cells (KBV200细胞) [2]; artesunate 10.000 μmol/l, 72 h): 84.47±0.600%
inhibition rate (IR) (KBV200 cells (KBV200细胞) [2]; artesunate 20.000 μmol/l, 72 h): 95.02±6.560%
inhibition rate (KBV200 cells (KBV200细胞) [2]; artesunate above 1.466 umol/l): > 50%
inhibitory effect on KBV200 cells (KBV200 cells (KBV200细胞) [2]; artesunate below 0.039 umol/l): 几乎无抑制效应
inhibition rate (KBV200 cells (KBV200细胞) [2]; artesunate below 0.313 umol/l): < 20%
inhibitory effect on KBV200 cells (KBV200 cells (KBV200细胞) [2]; artesunate below 1.25 umol/l): 抑制效应并不明显
inhibitory effect on tumour cells compared with another agent (KBV200 cells (KBV200细胞) [2]): 比青蒿素显著增强
inhibitory effect on KBV200 cells (KBV200 cells (KBV200细胞) [2]; overall statement): 大浓度具有一定的抑制KBV200细胞增殖效应; also recorded: 均有一定抑制效应
inhibition rate of KBV200 cells on combination with VCR (KBV200 cells (KBV200细胞) [3]): 略有提高
reversal of vincristine resistance / sensitisation of KBV200 to VCR (KBV200 cells (KBV200细胞) [3]): 有一定的增敏作用
reversal fold (RI) (KBV200 cells (KBV200细胞) [3]; artesunate 0.078 umol/l with VCR): 1.19
reversal fold (RI) (KBV200 cells (KBV200细胞) [3]; artesunate 0.156 umol/l with VCR): 1.79
reversal fold (RI) (KBV200 cells (KBV200细胞) [3]; artesunate 0.313 umol/l with VCR): 2.57

C[C@@H]1CC[C@H]2[C@@H](C)C(=O)O[C@@H]3O[C@@]4(C)CC[C@@H]1[C@]32OO4 [青蒿素]
IC50 (KBV200 cells (KBV200细胞) [2]; [5]): 48.6 µg/mL
IC50 (KBV200 cells (KBV200细胞) [2]; [6]): 172 µM
inhibition rate (IR) (KBV200 cells (KBV200细胞) [2]; artemisinin 2.50 μmol/l, 72 h): 1.140±2.85%
inhibition rate (IR) (KBV200 cells (KBV200细胞) [2]; artemisinin 5.00 μmol/l, 72 h): 2.690±4.36%
inhibition rate (IR) (KBV200 cells (KBV200细胞) [2]; artemisinin 20.0 μmol/l, 72 h): < 20% and 12.70±2.53%
inhibition rate (IR) (KBV200 cells (KBV200细胞) [2]; artemisinin 40.0 μmol/l, 72 h): < 20% and 19.22±5.59%
inhibition rate (IR) (KBV200 cells (KBV200细胞) [2]; artemisinin 80.0 μmol/l, 72 h): 28.47±2.73%
inhibition rate (IR) (KBV200 cells (KBV200细胞) [2]; artemisinin 160 μmol/l, 72 h): 43.57±5.20%
inhibition rate (KBV200 cells (KBV200细胞) [2]; artemisinin above 172.4 umol/l): > 50%
inhibitory effect on KBV200 cells (KBV200 cells (KBV200细胞) [2]; artemisinin below 2.50 umol/l): 几乎无抑制效应
inhibition rate (KBV200 cells (KBV200细胞) [2]; artemisinin below 40 umol/l): < 20%
inhibition rate (KBV200 cells (KBV200细胞) [2]; artemisinin below 80 umol/l): < 30%
inhibitory effect on KBV200 cells (KBV200 cells (KBV200细胞) [2]; artemisinin below 160 umol/l): 抑制效应并不明显
inhibitory effect on KBV200 cells (KBV200 cells (KBV200细胞) [2]; overall statement): 大浓度具有一定的抑制KBV200细胞增殖效应; also recorded: 均有一定抑制效应
inhibition rate of KBV200 cells on combination with VCR (KBV200 cells (KBV200细胞) [3]): 明显提高
reversal of vincristine resistance / sensitisation of KBV200 to VCR (KBV200 cells (KBV200细胞) [3]): 可部分逆转; also recorded: 具有不同的逆转KBV200耐药效应
reversal fold (RI) (KBV200 cells (KBV200细胞) [3]; artemisinin 10 umol/l with VCR, RI = IC50 VCR / IC50 VCR+agent): 2.29
reversal fold (RI) (KBV200 cells (KBV200细胞) [3]; artemisinin 20 umol/l with VCR): 2.68
reversal fold (RI) (KBV200 cells (KBV200细胞) [3]; artemisinin 40 umol/l with VCR): 3.0

COC(=O)C[C@](O)(CCCC(C)(C)O)C(=O)O[C@@H]1C(OC)=C[C@]23CCCN2CCc2cc4c(cc2[C@H]13)OCO4 [高三尖杉酯]
resistance (KBV200 cells (KBV200细胞) [1]): 耐药性较低

COc1cc([C@@H]2c3cc4c(cc3[C@@H](O[C@@H]3O[C@@H]5CO[C@@H](C)O[C@H]5[C@H](O)[C@H]3O)[C@H]3COC(=O)[C@H]23)OCO4)cc(OC)c1O [鬼臼乙叉甙]
resistance (KBV200 cells (KBV200细胞) [1]): 耐药性较低

人参皂甙Rb1
reversal fold [4]: 8.2-13.0
